Experimental data from patent US20250161299A1, “ORAL PCLX-001 IN THE TREATMENT OF HUMAN CANCER” (PACYLEX PHARMACEUTICALS INC., priority 2022, published 2025).
Like-named read-outs stand apart in the source and are kept apart here.

Assay: Phase I trial of oral PCLX-001: plasma pharmacokinetics, noncompartmental analysis (Phoenix WinNonlin 8.3)
Format: in vivo, human
Details: for AUC(0-t): read-out: AUClast; for Tmax: read-out: Tmax
Description: The clinical trial is entitled “Phase I Trial of PCLX-001 in B-cell Non-Hodgkin Lymphoma and Advanced Solid Malignancies” and registered at clinicaltrials.gov as NCT04836195. It is a phase I dose-escalation study of oral PCLX-001, conducted in a multicenter, non-randomized, open-label, non-controlled design. The study is comprised of two parts: Part A (single-agent dose escalation) and Part B (single-agent expansion cohorts).
Patients are to receive daily oral PCLX-001 on 28-day cycles, beginning with a starting dose of 20 mg.
[…] After dosing, the blood samples (volumes 3 mL) were serially collected into heparinized tubes from a right forearm butterfly cannula. All blood fluid specimens were frozen and later assayed using a validated UHPLC-MS detection method.
Noncompartmental pharmacokinetic analysis was performed using Phoenix WinNonlin 8.3 using trapezoidal rule and linear up log down methodology. WinNonlin was allowed to pick optimal terminal phases.
Nonparametric superposition was performed using Phoenix WinNonlin Nonparametric Superposition to predict steady state data based upon Day 1 data for each patient. It utilized the 8- and 24-hour time points for estimation of terminal phase for the purposes of this exercise. We simulated 20 mg daily oral dosing and simulations were conducted out to steady state. Results are show in FIGS. 5, 6, and 7.
In the non-compartmental analysis, Phoenix WinNonlin 8.3 trapezoidal rule was used, with linear up log down method. This allowed WinNonlin to pick optimal terminal phase (WinNonlin will accept Rsq adjusted to >0.7). Additional analysis to assess adequate fie included visual inspection of data, and AUCextrap should be <15%.
Phoenix WinNonlin 8.3 trapezoidal rule. Used linear up log down method. Allowed WinNonlin to pick optimal terminal phase (WinNonlin will accept Rsq adjusted >0.7).
Other analysis to assess adequate fit. Visual inspection of data. AUCextrap should be <15%.

[1] = Table 1A, Patient 115-002-001 (Patient 1), Day 1, 20 mg oral daily
[2] = human, plasma, oral, 20 mg, Table 4, Mean, not on Pantoprazole, 20 mg, N 3, Day 1
[3] = human, plasma, oral, 20 mg, Table 4, Mean, not on Pantoprazole, 20 mg, N 3, Day 15
[4] = human, plasma, oral, 40 mg, Table 4, not on Pantoprazole, 40 mg, N 1, Day 1
[5] = human, plasma, oral, 40 mg, Table 4, not on Pantoprazole, 40 mg, N 1, Day 15
[6] = human, plasma, oral, 40 mg, Table 5, on Pantoprazole, 40 mg, N 1, Day 1
[7] = human, plasma, oral, 40 mg, Table 5, on Pantoprazole, 40 mg, N 1, Day 15
[8] = human, plasma, oral, 70 mg, Table 4, not on Pantoprazole, 70 mg, N 1, Day 1

Cc1c(NS(=O)(=O)c2c(Cl)cc(-c3ccnc(N4CCNCC4)c3)cc2Cl)c(CC(C)C)nn1C [PCLX-001, 2,6-dichloro-N-(3-isobutyl-1,5-dimethyl-1H-pyrazol-4-yl)-4-(2-(piperazin-1-yl)pyridin-4-yl)benzene sulfonamide]
systemic accumulation of drug (Patient 1, by day 15, 20 mg oral daily): without systemic accumulation of drug
drug accumulation (Patient 2, 20 mg oral daily): No significant drug accumulation
AUCextrep [1]: 15.9%
half-life [1]: 8.5 h
AUCextrep (Table 1A, Patient 115-002-001 (Patient 1), Day 15, 20 mg oral daily): 21.9%
AUCextrep (Table 1A, Patient 115-002-002 (Patient 2), Day 15, 20 mg oral daily): 20.4%
AUCextrep (Table 1A, Patient 115-002-004 (Patient 3), Day 1, 20 mg oral daily): 5.41%
AUCextrep (Table 1A, Patient 115-002-004 (Patient 3), Day 15, 20 mg oral daily): 11.3%
AUCextrap (Table 6, Patient 115-002-001, Day 1, 20 mg QD oral, Pantoprazole No): 15.3%
AUCextrap (Table 6, Patient 115-002-001, Day 15, 20 mg QD oral, Pantoprazole No): 23.7%
AUCextrap (Table 6, Patient 115-002-002, Day 15, 20 mg QD oral, Pantoprazole No): 17.5%
AUCextrap (Table 6, Patient 115-002-004, Day 1, 20 mg QD oral, Pantoprazole No): 5.1%
AUCextrap (Table 6, Patient 115-002-004, Day 15, 20 mg QD oral, Pantoprazole No): 10.0%
AUCextrap (Table 7, Patient 115-002-005, Day 1, 40 mg QD oral, Pantoprazole Yes): 9.5%
AUCextrap (Table 7, Patient 115-002-005, Day 15, 40 mg QD oral, Pantoprazole Yes): 5.3%
AUCextrap (Table 7, Patient 115-009-001, Day 1, 40 mg QD oral, Pantoprazole No): 20.1%
AUCextrap (Table 7, Patient 115-009-001, Day 15, 40 mg QD oral, Pantoprazole No): 24.9%
AUCextrap (Table 8, Patient 115-024-001, Day 1, 70 mg QD oral, Pantoprazole No): 16.8%
AUCextrap (Table 9, Patient 115-002-009, Day 1, 100 mg QD oral, Pantoprazole No): 4.4%
AUCextrap (Table 9, Patient 115-002-010, Day 1, 100 mg QD oral, Pantoprazole No): 10.9%
AUCextrap (Table 9, Patient 115-002-011, Day 1, 100 mg QD oral, Pantoprazole No): 18.4%
AUCextrap (Table 9, Patient 115-002-012, Day 15, 100 mg QD oral, Pantoprazole No): 12.2%
AUCextrap (Table 10, Patient 115-002-006, Day 1, Dose 140 mg QD oral, Concomitant Pantoprazole No): 5.48%
AUCextrap (Table 10, Patient 115-002-006, Day 15, Dose 140 mg QD oral, Concomitant Pantoprazole No): 22.7%
AUCextrap (Table 10, Patient 115-024-005, Day 1, Dose 140 mg QD oral, Concomitant Pantoprazole Yes): 12.1%
AUCextrap (Table 10, Patient 115-024-005, Day 15, Dose 140 mg QD oral, Concomitant Pantoprazole Yes): 37.9%
AUCextrap (Table 10, Patient 115-024-013, Day 1, Dose 140 mg QD oral, Concomitant Pantoprazole Yes): 12.5%
AUCextrap (Table 10, Patient 115-024-013, Day 15, Dose 140 mg QD oral, Concomitant Pantoprazole Yes): 39.9%
dose proportionality of systemic exposure (dose range of 20 to 140 mg): dose proportional
Cmax (human, plasma, oral, 20 mg, Table 3, human (patient 1), 20 mg/75 kg = 0.27 mg/kg): 479 ng/mL
half-life (human, plasma, oral, 20 mg, Table 3, human (patient 1), 20 mg/75 kg = 0.27 mg/kg, read-out: Terminal elimination half-life (converted)): 16 h
Cmax (human, plasma, oral, 20 mg, Table 4, Mean (CV), not on Pantoprazole, 20 mg, N 3, Day 1): 276 ng/mL
half-life (human, plasma, oral, 20 mg, Table 4, Mean (CV), not on Pantoprazole, 20 mg, N 3, Day 1, read-out: t½ (converted)): 6.93 h
Cmax (human, plasma, oral, 20 mg, Table 4, Mean (CV), not on Pantoprazole, 20 mg, N 3, Day 15): 359 ng/mL
half-life (human, plasma, oral, 20 mg, Table 4, Mean (CV), not on Pantoprazole, 20 mg, N 3, Day 15, read-out: t½ (converted)): 8.93 h
AUC(0-inf) [2]: 1960 ng·h/mL
AUC(0-t) [2]: 1600 ng·h/mL
AUC(0-inf) [3]: 2720 ng·h/mL
AUC(0-t) [3]: 2220 ng·h/mL
Tmax (human, plasma, oral, 20 mg, Table 4, median (min, max), not on Pantoprazole, 20 mg, N 3, Day 1): 2 h
Tmax (human, plasma, oral, 20 mg, Table 4, median (min, max), not on Pantoprazole, 20 mg, N 3, Day 15): 1 h
AUC(0-inf) [4]: 12600 ng·h/mL
Cmax [4]: 1670 ng/mL
AUC(0-t) [4]: 10100 ng·h/mL
Tmax [4]: 1 h
half-life (human, plasma, oral, 40 mg, Table 4, not on Pantoprazole, 40 mg, N 1, Day 1, read-out: t½ (converted)): 10.8 h
AUC(0-inf) [5]: 18300 ng·h/mL
Cmax [5]: 1480 ng/mL
AUC(0-t) [5]: 13700 ng·h/mL
Tmax [5]: 2 h
half-life (human, plasma, oral, 40 mg, Table 4, not on Pantoprazole, 40 mg, N 1, Day 15, read-out: t½ (converted)): 11.9 h
AUC(0-inf) [6]: 4900 ng·h/mL
Cmax [6]: 868 ng/mL
AUC(0-t) [6]: 4430 ng·h/mL
Tmax [6]: 0.5 h
half-life (human, plasma, oral, 40 mg, Table 5, on Pantoprazole, 40 mg, N 1, Day 1, read-out: t½ (converted)): 7.5 h
AUC(0-inf) [7]: 7060 ng·h/mL
Cmax [7]: 802 ng/mL
AUC(0-t) [7]: 6680 ng·h/mL
Tmax [7]: 2 h
half-life (human, plasma, oral, 40 mg, Table 5, on Pantoprazole, 40 mg, N 1, Day 15, read-out: t½ (converted)): 5.54 h
AUC(0-inf) [8]: 11300 ng·h/mL
Cmax [8]: 1430 ng/mL
AUC(0-t) [8]: 9400 ng·h/mL
Tmax [8]: 1 h
half-life (human, plasma, oral, 70 mg, Table 4, not on Pantoprazole, 70 mg, N 1, Day 1, read-out: t½ (converted)): 9.44 h
